Measurements reported in BindingDB's records for patent US9932341 (Incyte, 2018).

Biological target: T1, Phosphatidylinositol 4,5-bisphosphate 3-kinase catalytic subunit delta isoform (Homo sapiens, UniProt O00329)
T1 sequence (O00329 whole entry): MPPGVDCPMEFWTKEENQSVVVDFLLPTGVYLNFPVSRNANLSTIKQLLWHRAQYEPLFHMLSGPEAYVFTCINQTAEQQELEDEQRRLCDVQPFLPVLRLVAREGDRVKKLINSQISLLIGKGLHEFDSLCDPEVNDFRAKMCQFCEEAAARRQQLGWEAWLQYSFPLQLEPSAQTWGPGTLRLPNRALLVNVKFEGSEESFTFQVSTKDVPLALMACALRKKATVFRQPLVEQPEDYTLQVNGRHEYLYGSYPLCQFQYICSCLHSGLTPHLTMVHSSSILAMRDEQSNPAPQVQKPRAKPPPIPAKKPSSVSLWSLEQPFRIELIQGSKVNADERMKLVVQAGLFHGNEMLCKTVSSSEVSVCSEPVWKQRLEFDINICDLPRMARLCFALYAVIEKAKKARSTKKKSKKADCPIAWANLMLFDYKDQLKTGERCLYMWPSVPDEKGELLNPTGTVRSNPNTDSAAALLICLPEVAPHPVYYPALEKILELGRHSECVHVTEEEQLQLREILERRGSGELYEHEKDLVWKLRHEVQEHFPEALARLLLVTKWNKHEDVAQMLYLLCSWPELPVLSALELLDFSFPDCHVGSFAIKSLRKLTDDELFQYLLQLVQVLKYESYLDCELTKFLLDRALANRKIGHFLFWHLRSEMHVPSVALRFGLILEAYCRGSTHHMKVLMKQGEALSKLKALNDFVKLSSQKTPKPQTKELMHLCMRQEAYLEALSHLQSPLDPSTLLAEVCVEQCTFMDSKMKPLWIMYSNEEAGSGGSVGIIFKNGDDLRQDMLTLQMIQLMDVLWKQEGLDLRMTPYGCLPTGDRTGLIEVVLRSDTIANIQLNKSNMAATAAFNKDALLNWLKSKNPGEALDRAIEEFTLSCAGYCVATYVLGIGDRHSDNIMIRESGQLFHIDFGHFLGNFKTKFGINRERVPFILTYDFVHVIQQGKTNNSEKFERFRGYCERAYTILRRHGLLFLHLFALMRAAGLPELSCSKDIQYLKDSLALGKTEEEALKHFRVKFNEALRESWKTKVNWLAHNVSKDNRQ
Assay: Scintillation Proximity Assay
Method: The kinase reaction was conducted in polystyrene 384-well matrix white plate from Thermo Fisher Scientific in a final volume of 25 uL. Inhibitors were first diluted serially in DMSO and added to the plate wells before the addition of other reaction components. The final concentration of DMSO in the assay was 0.5%. The PI3K assays were carried out at room temperature in 20 mM MOPS, pH 6.7, 10 mM MgCl2, 5 mM DTT and CHAPS 0.03%. Reactions were initiated by the addition of ATP, the final reaction mixture consisted of 20 uM PIP2, 20 uM ATP, 0.2 uCi [γ-33P] ATP, 4 nM PI3K . […] 25 mM EDTA, 400 uM ATP. The final concentration of SPA beads was 1.0 mg/mL. After the plate sealing, plates were shaken overnight at room temperature and centrifuged at 1800 rpm for 10 minutes, the radioactivity of the product was determined by scintillation counting on Topcount (PerkinElmer).

Row | SMILES | IC50
1 | COc1c(C(C)n2nc(C)c3c(N)ncnc32)cc(Cl)c(C)c1-c1ccc(C(=O)N(C)CCO)nc1 (configuration not stated) [US9932341, Example 24] | < 10 nM
2 | COc1c(C(C)n2nc(C)c3c(N)ncnc32)cc(Cl)c(C)c1-c1cncnc1 (configuration not stated) [US9932341, Example 168] | < 10 nM
